US11628181B2, “N4-hydroxycytidine and derivatives and anti-viral uses related thereto” (Emory University, priority 2014, dated 2023)
In brackets after ≈: the same amount, converted by molar mass. Like-named read-outs stand apart in the source and are kept apart here.

How the values were obtained:
[1] = in vitro; conditions: African green monkey
[2] = system: SARS Coronavirus Urbani; assay: microbe, parasite or virus in culture; type: cell-based; conditions: Severe acute respiratory syndrome-related coronavirus, Vero 76
[3] = system: Norovirus GT1; assay: Norovirus GT1 antiviral screening in HG23; type: cell-based
[4] = Cytotoxicity (CC50) in HG23, norovirus screening; type: cell-based; conditions: human, HG23 cells; HG23, norovirus screen
[5] = system: CHIKV
[6] = Rodent pharmacokinetic experiment in mice; type: in vivo, DBA-1J mice; conditions: female, DBA-1J, mouse, plasma, after IV dosing, read-out: plasma T1/2 (converted)
[7] = 6 day q.d. intraperitoneal toxicology in mice; type: in vivo
Excerpt: Alternatively, drug delivery by aerosol (nasal spray) administration may immediately achieve therapeutic levels of drug in the nasal mucosa and the brain.

[8] = rat, in vivo, po, 50 mg/kg
[9] = in vivo; conditions: male, SD, rat, po, 50 mg/kg
[10] = system: CEM cells; assay: Cytotoxicity profile, selectivity index in CEM cells; type: cell-based; conditions: CEM cells (low of range)
[11] = Rodent pharmacokinetic experiment in mice; type: in vivo, DBA-1J mice; conditions: for concentration at 24 hr: read-out: 24 hr plasma levels
Protocol: DBA-1J mice (6-8 weeks old, female) were acclimated for ≥2 days after receipt. Mice were weighed the day before dosing to calculate dosing volumes. Mice were dosed by oral gavage with drug at 30 mg/kg, 100 mg/kg & 300 mg/kg. The mice were sampled at […] time points: 0.5, 1, 2, 3, 4, 8 and 24 hrs (3 mice per time point for test drug). The mice were euthanized and their organs were collected (see below). In order to collected blood, mice with euthanized by CO2 at the appropriate time point listed above. Blood was obtained by cardiac puncture (0.3 ml) at each time point. Following blood collection, the organs were removed from the mice (see below). The blood was processed by inverting Li-Heparin tube with blood gently 2 or 3 times to mix well. The tubes were then placed in a rack in ice water until able to centrifuge (≤1 hour). As soon as practical, the blood was centrifuged at ˜2000×g for 10 min in a refrigerated centrifuge to obtain plasma. Then, using a 200 μL pipette, the plasma was transferred to a labeled 1.5 ml Eppendorf tube in ice water. The plasma was then frozen in freezer or on dry ice. The samples were stored at −80° C. prior to analysis. Organs were collected from euthanized mice. The organs (lungs, liver, kidney, spleen and heart) were removed, placed in a tube, and immediately frozen in liquid nitrogen. The tubes were then transferred to dry ice. The samples were saved in cryogenic tissue vials. Samples were analyzed by LC-MS/MS using an ABSCIEX 5500 QTRAP LC-MS/MS system with a Hypercarb (PGC) column.

[12] = system: CHIK virus; assay: Mouse model of Chikungunya infection; conditions: CHIKV challenged mice, 25 or 35 mg/kg i.p.
[13] = system: VEE virus; assay: organism not typed; type: cell-based; conditions: Vero

For `CC1(O)C(O)[C@@H](CO)O[C@H]1n1ccc(NO)nc1=O` (stereo partly drawn), the CC50 [1] was > 100 µg/mL, the EC50 [2] was > 100 µg/mL and the EC50 [3] was > 100 µg/mL. For the same molecule, the CC50 [4] was > 100 µg/mL.

With `O=c1nc(NO)ccn1[C@@H]1O[C@H](CO)[C@H](O)C1O` (stereo partly drawn) [EIDD-01931, 1-(3,4-dihydroxy-5-(hydroxymethyl)tetrahydrofuran-2-yl)-4-(hydroxyamino)pyrimidin-2-one] the CC50 [5] was > 500 µM, the half-life [6] was 2.2 h and the “NOEL (NO Effect Level)” value ([7]; 6 day q.d. IP injections) was 33 mg/kg. The body weight effect ([7]; highest dose tested (100 mg/kg) IP q.d., reversed on cessation of dosing) was “weight loss was observed”, the “tissue distribution (brain, lung, spleen, kidney and liver)” value [8] was “well distributed into all tissues tested” and the bioavailability [9] was 28%. The selectivity index [10] was 8, the “Bioavailability (versus I.P. delivery)” value ([11]; PO 30 mg/kg) was 65% and the “Bioavailability (versus I.P. delivery)” value ([11]; PO 100 and 300 mg/kg) was 39-46%. For the same molecule, the Cmax ([11]; female, DBA-1J, mouse, plasma, PO 30 mg/kg) was 3 ng/mL, the Cmax ([11]; female, DBA-1J, mouse, plasma, PO 100 mg/kg) was 7.7 ng/mL and the Cmax ([11]; female, DBA-1J, mouse, plasma, PO 300 mg/kg) was 11.7 ng/mL. It also gave a half-life ([11]; female, DBA-1J, mouse, plasma, after PO dosing, read-out: plasma T1/2) of 4.1 to 4.7 h, a Tmax ([11]; female, DBA-1J, mouse, plasma, oral gavage, read-out: Tmax after oral dosing) of 0.25 to 0.5 h and a concentration at 24 hr ([11]; female, DBA-1J, mouse, plasma, oral, 100 mg/kg dose) of ~100 nM. For the same molecule, the concentration at 24 hr ([11]; female, DBA-1J, mouse, plasma, po, 300 mg/kg P.O.) was ~400 nM, the “CHIKV RNA copies by PCR (FIG. 8)” value ([12]; after 7 days) was “reduction of CHIKV RNA copies” and the “footpad swelling (FIG. 7)” value ([12]; daily for 7 days) was “reduction in footpad swelling”. The EC50 [13] was 1 µM.

In the case of `O=c1nc(NO)ccn1[C@@H]1O[C@H](CO)C(O)C1O` (stereo partly drawn) [drawing 68], the CC50 [1] is reported as 36 µg/mL (≈ 139 µM), the EC50 [2] is reported as < 0.1 µg/mL and the EC50 [3] is reported as > 100 µg/mL. For the same molecule, the CC50 [4] was > 100 µg/mL.
